Reference: PMC8550792, “Evolution of kinase polypharmacology across HSP90 drug discovery” (Cell Chemical Biology, 2021)

Assays:
Assay in all cases: biochemical
Type in all cases: biochemical
382 unique human kinases [1] = molecular target: T1, 382 unique human kinases (Homo sapiens, UniProt Q7L7X3); details: kinase TAOK1, compound 10 uM; for remaining activity at 10 µM: read-out: % Enzyme Activity (relative to DMSO controls)
T1 construct: purchased Reaction Biology (HotSpot contract assay)
T1 sequence (Q7L7X3 1-1001): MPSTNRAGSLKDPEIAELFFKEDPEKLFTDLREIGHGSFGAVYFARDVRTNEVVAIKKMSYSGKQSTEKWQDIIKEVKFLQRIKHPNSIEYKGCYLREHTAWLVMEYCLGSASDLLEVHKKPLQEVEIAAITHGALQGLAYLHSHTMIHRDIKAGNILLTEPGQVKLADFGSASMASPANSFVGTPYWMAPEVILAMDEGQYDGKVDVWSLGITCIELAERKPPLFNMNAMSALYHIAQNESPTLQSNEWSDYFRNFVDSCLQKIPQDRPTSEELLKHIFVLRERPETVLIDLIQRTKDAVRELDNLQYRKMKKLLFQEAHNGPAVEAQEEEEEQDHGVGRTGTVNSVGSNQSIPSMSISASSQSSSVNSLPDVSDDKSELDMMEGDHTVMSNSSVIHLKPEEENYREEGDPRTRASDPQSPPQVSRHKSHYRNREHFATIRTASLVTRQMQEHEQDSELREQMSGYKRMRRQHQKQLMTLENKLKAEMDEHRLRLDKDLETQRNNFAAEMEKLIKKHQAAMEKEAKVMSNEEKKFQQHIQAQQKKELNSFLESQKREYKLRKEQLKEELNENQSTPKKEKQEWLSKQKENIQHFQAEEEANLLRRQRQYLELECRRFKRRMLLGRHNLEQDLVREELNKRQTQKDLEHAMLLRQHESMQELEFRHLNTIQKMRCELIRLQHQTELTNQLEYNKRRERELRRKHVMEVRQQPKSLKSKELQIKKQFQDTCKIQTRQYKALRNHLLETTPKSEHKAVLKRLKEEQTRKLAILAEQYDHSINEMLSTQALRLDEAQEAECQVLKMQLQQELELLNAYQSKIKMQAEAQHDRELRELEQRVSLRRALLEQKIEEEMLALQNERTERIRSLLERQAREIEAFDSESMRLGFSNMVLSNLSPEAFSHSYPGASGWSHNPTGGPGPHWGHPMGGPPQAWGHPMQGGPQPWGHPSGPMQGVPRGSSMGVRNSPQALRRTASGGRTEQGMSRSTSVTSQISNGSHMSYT

382 unique human kinases [2] = molecular target: T2, 382 unique human kinases (Homo sapiens, UniProt P00533, A750P/DEL747-749); details: EGFR (d747-749/A750P), 10 uM; for remaining activity at 10 µM: read-out: % Enzyme Activity (relative to DMSO controls)
T2 construct: purchased Reaction Biology (HotSpot contract assay)

382 unique human kinases [3] = molecular target: T3, 382 unique human kinases (Homo sapiens, UniProt P43403); details: ZAP70, compound at 10 uM, duplicate values; for remaining activity at 10 µM: read-out: % Enzyme Activity (relative to DMSO controls)
T3 construct: purchased Reaction Biology (HotSpot contract assay)
T3 sequence (P43403 1-619): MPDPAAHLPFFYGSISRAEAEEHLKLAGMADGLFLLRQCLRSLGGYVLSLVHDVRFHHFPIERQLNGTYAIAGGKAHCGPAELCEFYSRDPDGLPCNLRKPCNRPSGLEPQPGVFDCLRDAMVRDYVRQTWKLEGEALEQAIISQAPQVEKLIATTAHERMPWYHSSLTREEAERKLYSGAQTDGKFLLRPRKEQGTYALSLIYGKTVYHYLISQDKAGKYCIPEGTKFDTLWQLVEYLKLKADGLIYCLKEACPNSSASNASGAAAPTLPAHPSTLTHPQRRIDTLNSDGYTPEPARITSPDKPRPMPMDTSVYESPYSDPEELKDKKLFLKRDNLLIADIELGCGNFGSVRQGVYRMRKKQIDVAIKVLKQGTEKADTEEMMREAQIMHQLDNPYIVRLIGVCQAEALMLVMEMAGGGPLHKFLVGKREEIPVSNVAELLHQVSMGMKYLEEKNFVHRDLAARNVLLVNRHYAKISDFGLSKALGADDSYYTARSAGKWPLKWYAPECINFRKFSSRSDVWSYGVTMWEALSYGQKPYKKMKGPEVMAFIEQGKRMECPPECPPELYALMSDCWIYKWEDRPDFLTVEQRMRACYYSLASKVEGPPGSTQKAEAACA

382 unique human kinases [4] = molecular target: T4, 382 unique human kinases (Homo sapiens, UniProt P00533, T790M); details: kinase EGFR (T790M), compound 10 uM; for remaining activity at 10 µM: read-out: % Enzyme Activity (relative to DMSO controls)
T4 construct: purchased Reaction Biology (HotSpot contract assay)

382 unique human kinases [5] = molecular target: T5, 382 unique human kinases (Homo sapiens, UniProt P23458); details: JAK1, 10 uM; for remaining activity at 10 µM: read-out: % Enzyme Activity (relative to DMSO controls)
T5 construct: purchased Reaction Biology (HotSpot contract assay)
T5 sequence (P23458 whole entry): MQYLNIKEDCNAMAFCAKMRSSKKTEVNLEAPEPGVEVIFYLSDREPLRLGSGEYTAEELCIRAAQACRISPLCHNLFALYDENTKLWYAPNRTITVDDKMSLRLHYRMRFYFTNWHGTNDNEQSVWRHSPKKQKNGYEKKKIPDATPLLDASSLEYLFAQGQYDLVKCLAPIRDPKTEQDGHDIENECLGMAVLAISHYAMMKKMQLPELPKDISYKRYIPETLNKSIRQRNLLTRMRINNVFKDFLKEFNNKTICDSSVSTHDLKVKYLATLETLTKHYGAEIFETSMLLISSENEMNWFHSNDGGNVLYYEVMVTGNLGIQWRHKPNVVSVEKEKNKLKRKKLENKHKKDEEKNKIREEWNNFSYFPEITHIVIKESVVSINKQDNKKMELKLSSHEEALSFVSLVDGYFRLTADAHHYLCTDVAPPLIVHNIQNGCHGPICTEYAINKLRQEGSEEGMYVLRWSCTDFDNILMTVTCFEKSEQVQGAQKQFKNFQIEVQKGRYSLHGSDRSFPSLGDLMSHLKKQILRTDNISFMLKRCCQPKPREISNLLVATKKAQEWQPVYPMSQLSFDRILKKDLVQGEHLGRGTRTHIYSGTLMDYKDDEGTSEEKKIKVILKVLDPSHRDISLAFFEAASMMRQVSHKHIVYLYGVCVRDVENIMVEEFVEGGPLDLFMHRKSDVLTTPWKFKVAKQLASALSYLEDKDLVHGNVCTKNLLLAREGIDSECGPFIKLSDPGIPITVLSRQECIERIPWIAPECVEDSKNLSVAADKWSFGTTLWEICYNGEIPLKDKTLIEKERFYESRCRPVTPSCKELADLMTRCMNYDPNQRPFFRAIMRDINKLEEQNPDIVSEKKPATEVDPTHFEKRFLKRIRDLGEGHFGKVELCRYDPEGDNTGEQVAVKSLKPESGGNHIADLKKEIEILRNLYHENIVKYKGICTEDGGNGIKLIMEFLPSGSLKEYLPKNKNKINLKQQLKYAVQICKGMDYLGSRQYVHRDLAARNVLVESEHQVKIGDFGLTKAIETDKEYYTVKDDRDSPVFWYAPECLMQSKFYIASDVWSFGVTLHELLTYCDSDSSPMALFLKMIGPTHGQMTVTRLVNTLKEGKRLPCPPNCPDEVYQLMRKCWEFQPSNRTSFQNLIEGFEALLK

382 unique human kinases [6] = molecular target: T6, 382 unique human kinases (Homo sapiens, UniProt P42684); details: ABL2/ARG, [ATP] 30 µM
T6 construct: purchased Reaction Biology (HotSpot contract assay)
T6 sequence (P42684 whole entry): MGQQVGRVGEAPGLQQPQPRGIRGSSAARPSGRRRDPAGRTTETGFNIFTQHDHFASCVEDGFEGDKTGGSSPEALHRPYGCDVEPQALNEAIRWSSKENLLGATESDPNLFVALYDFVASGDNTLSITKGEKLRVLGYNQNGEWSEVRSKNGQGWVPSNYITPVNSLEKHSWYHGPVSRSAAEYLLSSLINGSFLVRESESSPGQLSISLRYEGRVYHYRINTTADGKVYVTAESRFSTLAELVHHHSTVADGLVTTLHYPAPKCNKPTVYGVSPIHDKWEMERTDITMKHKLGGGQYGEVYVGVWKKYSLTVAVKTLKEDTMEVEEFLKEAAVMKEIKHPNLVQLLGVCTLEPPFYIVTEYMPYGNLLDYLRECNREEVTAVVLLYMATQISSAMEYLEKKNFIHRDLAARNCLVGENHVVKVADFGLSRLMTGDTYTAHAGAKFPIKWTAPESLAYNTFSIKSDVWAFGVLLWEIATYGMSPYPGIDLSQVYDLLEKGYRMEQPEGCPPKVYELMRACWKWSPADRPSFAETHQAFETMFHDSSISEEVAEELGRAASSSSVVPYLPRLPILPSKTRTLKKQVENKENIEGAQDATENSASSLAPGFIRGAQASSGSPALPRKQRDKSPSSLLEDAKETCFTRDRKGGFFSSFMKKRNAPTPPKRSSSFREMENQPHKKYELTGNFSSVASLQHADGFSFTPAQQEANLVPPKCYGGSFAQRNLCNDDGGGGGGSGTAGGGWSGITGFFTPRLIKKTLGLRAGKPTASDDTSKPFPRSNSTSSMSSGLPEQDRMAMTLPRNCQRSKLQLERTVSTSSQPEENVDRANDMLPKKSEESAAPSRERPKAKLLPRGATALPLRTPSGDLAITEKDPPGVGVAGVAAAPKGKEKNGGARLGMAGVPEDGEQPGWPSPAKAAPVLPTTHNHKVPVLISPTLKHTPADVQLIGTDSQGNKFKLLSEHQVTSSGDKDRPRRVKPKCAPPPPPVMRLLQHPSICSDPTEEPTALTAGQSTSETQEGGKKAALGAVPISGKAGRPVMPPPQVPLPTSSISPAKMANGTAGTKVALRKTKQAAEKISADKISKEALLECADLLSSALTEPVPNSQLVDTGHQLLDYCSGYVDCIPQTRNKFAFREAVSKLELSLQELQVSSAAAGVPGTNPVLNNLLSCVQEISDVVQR

382 unique human kinases [7] = molecular target: T7, 382 unique human kinases (Homo sapiens, UniProt Q9UQB9); details: Aurora C, 10 uM; for remaining activity at 10 µM: read-out: % Enzyme Activity (relative to DMSO controls)
T7 construct: purchased Reaction Biology (HotSpot contract assay)
T7 sequence (Q9UQB9 1-309): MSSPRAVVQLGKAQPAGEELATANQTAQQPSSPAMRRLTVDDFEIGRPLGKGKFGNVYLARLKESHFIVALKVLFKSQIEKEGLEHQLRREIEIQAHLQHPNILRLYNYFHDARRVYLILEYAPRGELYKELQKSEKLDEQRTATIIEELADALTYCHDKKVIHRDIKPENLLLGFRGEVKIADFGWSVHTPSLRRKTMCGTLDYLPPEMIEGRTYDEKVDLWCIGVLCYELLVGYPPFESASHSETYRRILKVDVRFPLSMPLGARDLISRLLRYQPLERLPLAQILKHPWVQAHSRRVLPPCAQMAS

382 unique human kinases [8] = molecular target: T8, 382 unique human kinases (Homo sapiens, UniProt Q13464); details: ROCK1, 10 uM; for remaining activity at 10 µM: read-out: % Enzyme Activity (relative to DMSO controls)
T8 construct: purchased Reaction Biology (HotSpot contract assay)
T8 sequence (Q13464 whole entry): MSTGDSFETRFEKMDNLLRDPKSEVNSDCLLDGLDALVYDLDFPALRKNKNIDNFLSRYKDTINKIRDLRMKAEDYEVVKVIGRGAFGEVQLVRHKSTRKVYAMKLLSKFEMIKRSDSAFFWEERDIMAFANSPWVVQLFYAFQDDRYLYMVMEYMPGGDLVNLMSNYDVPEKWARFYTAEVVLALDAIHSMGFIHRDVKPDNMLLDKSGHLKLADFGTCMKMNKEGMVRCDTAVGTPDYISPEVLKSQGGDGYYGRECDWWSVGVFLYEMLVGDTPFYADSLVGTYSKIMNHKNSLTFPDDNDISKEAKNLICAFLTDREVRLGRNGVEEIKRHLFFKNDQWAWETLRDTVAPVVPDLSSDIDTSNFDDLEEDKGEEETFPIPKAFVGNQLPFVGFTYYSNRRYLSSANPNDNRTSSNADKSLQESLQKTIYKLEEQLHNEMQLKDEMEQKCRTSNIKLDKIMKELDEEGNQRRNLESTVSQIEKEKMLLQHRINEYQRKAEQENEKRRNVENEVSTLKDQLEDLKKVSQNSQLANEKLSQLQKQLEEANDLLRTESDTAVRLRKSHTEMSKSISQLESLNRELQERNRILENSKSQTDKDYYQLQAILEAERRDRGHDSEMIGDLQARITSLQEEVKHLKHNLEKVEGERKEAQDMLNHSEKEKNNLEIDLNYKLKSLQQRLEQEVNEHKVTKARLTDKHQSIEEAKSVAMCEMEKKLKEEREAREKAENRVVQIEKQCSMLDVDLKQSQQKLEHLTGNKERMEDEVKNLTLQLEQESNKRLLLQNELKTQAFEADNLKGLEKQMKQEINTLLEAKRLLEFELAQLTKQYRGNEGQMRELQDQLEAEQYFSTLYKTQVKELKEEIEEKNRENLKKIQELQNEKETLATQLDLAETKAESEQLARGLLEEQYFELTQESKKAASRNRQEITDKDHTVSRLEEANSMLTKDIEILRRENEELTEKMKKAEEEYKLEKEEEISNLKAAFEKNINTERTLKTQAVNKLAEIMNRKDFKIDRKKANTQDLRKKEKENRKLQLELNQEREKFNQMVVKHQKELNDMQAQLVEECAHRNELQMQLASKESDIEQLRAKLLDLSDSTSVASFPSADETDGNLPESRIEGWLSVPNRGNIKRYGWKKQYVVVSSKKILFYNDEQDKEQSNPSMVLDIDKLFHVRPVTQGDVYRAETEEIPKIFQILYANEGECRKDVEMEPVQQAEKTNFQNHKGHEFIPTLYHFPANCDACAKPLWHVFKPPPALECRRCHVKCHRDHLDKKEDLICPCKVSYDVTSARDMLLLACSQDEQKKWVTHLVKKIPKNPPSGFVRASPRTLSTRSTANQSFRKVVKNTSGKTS

382 unique human kinases [9] = molecular target: T9, 382 unique human kinases (Homo sapiens, UniProt Q08345); details: DDR1, [ATP] 100 µM
T9 construct: purchased Reaction Biology (HotSpot contract assay)
T9 sequence (Q08345 19-913): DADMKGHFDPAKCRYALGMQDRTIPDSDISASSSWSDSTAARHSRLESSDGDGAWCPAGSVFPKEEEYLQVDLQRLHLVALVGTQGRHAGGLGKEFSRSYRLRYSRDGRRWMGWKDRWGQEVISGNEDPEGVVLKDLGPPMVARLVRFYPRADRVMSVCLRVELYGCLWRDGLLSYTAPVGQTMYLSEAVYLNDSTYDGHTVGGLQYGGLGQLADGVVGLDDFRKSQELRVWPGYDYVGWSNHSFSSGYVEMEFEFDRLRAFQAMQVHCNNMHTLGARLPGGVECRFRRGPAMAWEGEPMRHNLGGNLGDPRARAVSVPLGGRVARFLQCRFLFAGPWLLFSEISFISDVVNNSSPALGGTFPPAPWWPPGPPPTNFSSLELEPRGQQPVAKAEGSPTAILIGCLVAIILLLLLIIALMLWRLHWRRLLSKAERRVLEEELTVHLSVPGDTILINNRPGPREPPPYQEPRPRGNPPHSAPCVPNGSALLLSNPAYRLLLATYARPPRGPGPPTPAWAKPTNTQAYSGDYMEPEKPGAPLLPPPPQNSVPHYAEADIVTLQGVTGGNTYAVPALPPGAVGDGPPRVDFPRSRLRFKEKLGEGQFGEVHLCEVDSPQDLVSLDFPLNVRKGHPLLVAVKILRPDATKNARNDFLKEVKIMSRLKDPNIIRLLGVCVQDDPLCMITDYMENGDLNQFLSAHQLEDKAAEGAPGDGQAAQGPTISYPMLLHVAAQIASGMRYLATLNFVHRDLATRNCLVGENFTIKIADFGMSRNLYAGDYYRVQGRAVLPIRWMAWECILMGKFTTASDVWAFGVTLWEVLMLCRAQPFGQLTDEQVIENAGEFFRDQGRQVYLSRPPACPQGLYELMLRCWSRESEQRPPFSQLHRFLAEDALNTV

[10] = compound 1 uM, read-out: % Enzyme Activity (relative to DMSO controls)
[11] = compound 10 uM, read-out: % Enzyme Activity (relative to DMSO controls)

Structure (SMILES)	remaining activity at 10 µM (382 unique human kinases [1]) [%]	remaining activity at 10 µM (382 unique human kinases [2]) [%]	remaining activity at 10 µM (382 unique human kinases [3]) [%]	remaining activity at 10 µM (382 unique human kinases [4]) [%]	remaining activity at 10 µM (382 unique human kinases [5]) [%]	remaining activity at 1 µM (382 unique human kinases [6]; [10]) [%]	remaining activity at 10 µM (382 unique human kinases [6]; [11]) [%]	remaining activity at 10 µM (382 unique human kinases [7]) [%]	remaining activity at 10 µM (382 unique human kinases [8]) [%]	remaining activity at 1 µM (382 unique human kinases [9]; [10]) [%]	remaining activity at 10 µM (382 unique human kinases [9]; [11]) [%]	% Enzyme Activity (relative to DMSO controls) (382 unique human kinases [5]) [%]	% Enzyme Activity (relative to DMSO controls) (382 unique human kinases [6]; compound 10 uM) [%]	% Enzyme Activity (relative to DMSO controls) (382 unique human kinases [7]) [%]	% Enzyme Activity (relative to DMSO controls) (382 unique human kinases [8]) [%]	% Enzyme Activity (relative to DMSO controls) (382 unique human kinases [9]; compound 10 uM) [%]	% Enzyme Activity (relative to DMSO controls) (382 unique human kinases [1]) [%]	% Enzyme Activity (relative to DMSO controls) (382 unique human kinases [2]) [%]	% Enzyme Activity (relative to DMSO controls) (382 unique human kinases [3]) [%]	% Enzyme Activity (relative to DMSO controls) (382 unique human kinases [4]) [%]
CC(C)c1cc(-c2n[nH]c(=O)n2-c2ccc3c(ccn3C)c2)c(O)cc1O [Ganetespib (STA9090)]	88.8	67.9	108	85.7	–	–	–	–	–	–	–	–	–	–	–	–	–	–	–	–
CC(C)c1cc(-c2n[nH]c(=O)n2-c2ccc3c(ccn3C)c2)c(O)cc1O [Ganetespib]	–	–	–	–	95	12.9	1.12	92.9	91.4	8.59	4.12	–	–	–	–	–	–	–	–	–
CCNC(=O)c1noc(-c2cc(C(C)C)c(O)cc2O)c1-c1ccc(CN2CCOCC2)cc1 [Luminespib]	–	–	–	–	96.1	–	8.16	96	96.4	–	85.9	94.10	7.82	94.32	95.76	84.86	–	–	–	–
CCNC(=O)c1noc(-c2cc(C(C)C)c(O)cc2O)c1-c1ccc(CN2CCOCC2)cc1 [Luminespib (AUY-922)]	95	102	105	95.4	–	–	–	–	–	–	–	–	–	–	–	–	92.28	98.51	104.43	95.04
